Experimental data: article PMC10404681, “Intrinsic catalytic properties of histone H3 lysine-9 methyltransferases preserve monomethylation levels under low S-adenosylmethionine” (The Journal of Biological Chemistry, 2023)

What was measured:
SUV39H2 catalytic domain = target: T1, SUV39H2 catalytic domain (Homo sapiens, UniProt Q9H5I1); assay: Radiometric EZ-tip methyltransferase assay, steady-state kinetics, SUV39H2; format: biochemical, H. sapiens; conditions: SAM varied 0.1–100 μM, SUV39H2 25 nM, pH 7.9, 30 °C, n = 3, SD
T1 construct: host or cells: Rosetta E. coli
Source text: (§1) The H. sapiens EHMT1 catalytic subunit (Addgene plasmid #51314) and H. sapiens SUV39H2 catalytic subunit (Addgene plasmid #25115) E. coli expression plasmids used in this study were acquired from Addgene, made possible through a gift by Cheryl Arrowsmith. The H. sapiens EHMT2 catalytic subunit E. coli expression plasmid used in this study was provided by the laboratory of Peter W. Lewis at the University of Wisconsin-Madison. All remaining histone methyltransferase expression plasmids were generated for this study and will be made freely available from Addgene.
(§2) Michaelis-Menten saturation curves were generated under steady-state conditions with the non-titrated component concentration being present at ≥5× KM specific to each enzyme. 1 × 10^5 CPM values were provided by [methyl-^3H] SAM in each reaction. Reaction times and enzyme concentrations were optimized for each HMT to ensure substrate turnover remained below 20%. […] Enzyme concentrations are calculated for the monomeric form. Reactions were incubated at 30 °C for 20 min before quenching with TFA for a final concentration of 2% v/v TFA. […] The eluates were added to 2 ml of Ultima Gold LSC Cocktail (Sigma-Aldrich) and counted on a scintillation counter (PerkinElmer). […]

SUV39H1 = target: T2, SUV39H1 (Homo sapiens, UniProt O43463); assay: Radiometric EZ-tip methyltransferase assay, steady-state kinetics, SUV39H1; format: biochemical; conditions: SAM varied 0.1–100 μM, SUV39H1 100 nM, pH 7.9, 30 °C, n = 3, SD
T2 construct: made in house; host or cells: Rosetta E. coli (plasmid generated for this study)
T2 sequence (O43463 1-412): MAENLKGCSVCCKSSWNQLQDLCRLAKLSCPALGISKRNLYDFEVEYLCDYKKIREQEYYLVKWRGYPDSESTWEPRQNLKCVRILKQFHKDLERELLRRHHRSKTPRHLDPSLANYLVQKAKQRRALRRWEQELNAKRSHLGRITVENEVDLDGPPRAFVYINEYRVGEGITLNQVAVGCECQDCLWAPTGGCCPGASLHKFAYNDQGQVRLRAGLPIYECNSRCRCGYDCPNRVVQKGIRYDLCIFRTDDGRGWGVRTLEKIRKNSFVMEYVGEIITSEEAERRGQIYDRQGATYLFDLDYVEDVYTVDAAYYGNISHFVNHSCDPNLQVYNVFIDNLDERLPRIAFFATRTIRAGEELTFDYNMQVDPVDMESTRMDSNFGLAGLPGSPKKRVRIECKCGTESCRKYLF
Source text: as §1, §2

EHMT1 catalytic domain = target: T3, EHMT1 catalytic domain (Homo sapiens, UniProt Q9H9B1); assay: Radiometric EZ-tip methyltransferase assay, steady-state kinetics, EHMT1; format: biochemical, H. sapiens; conditions: SAM varied 0.1–100 μM, EHMT1 25 nM, pH 7.9, 30 °C, n = 3, SD
T3 construct: EHMT1 = 982 to 1266; host or cells: Rosetta E. coli
T3 sequence (Q9H9B1 982-1266): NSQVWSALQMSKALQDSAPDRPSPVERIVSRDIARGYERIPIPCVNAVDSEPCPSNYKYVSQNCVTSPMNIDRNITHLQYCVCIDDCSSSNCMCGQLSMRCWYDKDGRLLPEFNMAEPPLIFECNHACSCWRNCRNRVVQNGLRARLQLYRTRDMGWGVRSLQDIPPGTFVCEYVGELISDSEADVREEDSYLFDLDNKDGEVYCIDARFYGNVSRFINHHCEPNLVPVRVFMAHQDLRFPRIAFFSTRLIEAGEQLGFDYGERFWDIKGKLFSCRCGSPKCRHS
Source text: as §1, §2

EHMT2 catalytic domain = target: T4, EHMT2 catalytic domain (Homo sapiens, UniProt Q96KQ7); assay: Radiometric EZ-tip methyltransferase assay, steady-state kinetics, EHMT2; format: biochemical, H. sapiens; conditions: SAM varied 0.1–100 μM, EHMT2 25 nM, pH 7.9, 30 °C, n = 3, SD
T4 construct: EHMT2 = 913 to 1193; made in house; host or cells: Rosetta E. coli (plasmid from the laboratory of Peter W. Lewis)
T4 sequence (Q96KQ7 913-1193): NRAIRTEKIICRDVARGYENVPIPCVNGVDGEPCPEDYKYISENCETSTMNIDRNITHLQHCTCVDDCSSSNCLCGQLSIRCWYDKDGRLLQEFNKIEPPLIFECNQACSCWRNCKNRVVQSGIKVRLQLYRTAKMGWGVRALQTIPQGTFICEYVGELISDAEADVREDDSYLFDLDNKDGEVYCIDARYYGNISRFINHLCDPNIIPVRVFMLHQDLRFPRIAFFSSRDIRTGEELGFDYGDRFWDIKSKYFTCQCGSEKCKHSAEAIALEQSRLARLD
Source text: as §1, §2

[1] = fixed H3K9me1 peptide H3(1–17) 50 μM
[2] = fixed H3K9un peptide H3(1–17) 50 μM

T1 sequence (Q9H5I1 162-410): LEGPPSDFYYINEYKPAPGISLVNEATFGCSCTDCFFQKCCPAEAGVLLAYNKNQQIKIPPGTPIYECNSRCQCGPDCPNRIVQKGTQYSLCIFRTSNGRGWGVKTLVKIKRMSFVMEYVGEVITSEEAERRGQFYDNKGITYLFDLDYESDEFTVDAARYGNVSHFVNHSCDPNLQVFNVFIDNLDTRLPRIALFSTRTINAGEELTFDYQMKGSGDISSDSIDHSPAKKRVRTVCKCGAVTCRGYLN

kcat/KM, SAM (SUV39H2 catalytic domain; [1]): 6000 M⁻¹ s⁻¹
kcat/KM, SAM (SUV39H2 catalytic domain; [2]): 14300 M⁻¹ s⁻¹
kcat/KM, SAM (SUV39H1; [1]): 500 M⁻¹ s⁻¹
kcat/KM, SAM (SUV39H1; [2]): 1670 M⁻¹ s⁻¹
kcat/KM, SAM (EHMT1 catalytic domain; [1]): 5000 M⁻¹ s⁻¹
kcat/KM, SAM (EHMT1 catalytic domain; [2]): 16800 M⁻¹ s⁻¹
kcat/KM, SAM (EHMT2 catalytic domain; [1]): 2170 M⁻¹ s⁻¹
kcat/KM, SAM (EHMT2 catalytic domain; [2]): 6670 M⁻¹ s⁻¹
SMILES: C[S+](CC[C@H](N)C(=O)[O-])C[C@H]1O[C@@H](n2cnc3c(N)ncnc32)[C@H](O)[C@@H]1O (some centres unmarked) [SAM, S-adenosylmethionine]
